Article PMC5439695 (PLoS ONE, 2017)
Where a name gives a salt, the structure may show the parent alone. Read-outs that look alike come from different tables or passages of the source.

Experiments:
[1] = test system: estrogen receptor (ER); settings: cited from earlier work; for AUC score in Judson 2015: ER antagonist, ToxCast chemicals only, ref Judson 2015; for ER antagonist AUC score: pathway-level model using all Tox21/ToxCast ER assays of 1812 ToxCast chemicals
[2] = test system: HEK293 and HepG2 cell lines
[3] = test system: HEK293 cells; settings: HEK293 flor
[4] = test system: HEK293 cells; settings: HEK293 glo
[5] = test system: HepG2 cells; assay: CellTox Green Cytotoxicity Assay (flor) in HepG2, HepG2[flor]; assay type: cell-based, human; settings: HepG2 flor;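 as to hepg2 flor emax 0: percent activity versus DMSO-only wells with baseline rescaled to 0%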;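 as to hepg2 flor emax 40: percent activity versus DMSO-only wells with baseline rescaled to 0%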
[6] = test system: HepG2 cells; settings: HepG2 glo
[7] = POD potency, max over real-time cytotoxicity assays
[8] = POD potency, median over real-time cytotoxicity assays
[9] = time point 16, given as negative log-scale values
[10] = time point 24, given as negative log-scale values
[11] = time point 32, given as negative log-scale values
[12] = time point 40, given as negative log-scale values
[13] = time point 8, given as negative log-scale values

C[C@@]1(c2ccc(Oc3ccccc3)cc2)OC(=O)N(Nc2ccccc2)C1=O (racemic) [Famoxadone]
AUC score in Judson 2015 [1]: 0.000714

CCC(C)(C)c1ccc(O)c(C(C)(C)CC)c1 [2,4-Bis(2-methylbutan-2-yl)phenol]
AUC score in Judson 2015 [1]: 0.00113

CC(C)(C)c1ccc(O)c(C(C)(C)C)c1 [2,4-Di-tert-butylphenol]
AUC score in Judson 2015 [1]: 0

CCCCNC(=O)OCC#CI [3-Iodo-2-propynyl-N-butylcarbamate]
Cyto(realtime)_max [2, 7]: 5.74 log10(M)*-1
Cyto(realtime)_median [2, 8]: 4.62 log10(M)*-1
AUC score in Judson 2015 [1]: 0.0283

CC/C(=C(\c1ccc(O)cc1)c1ccc(OCCN(C)C)cc1)c1ccccc1 [4-Hydroxytamoxifen]
AUC score in Judson 2015 [1]: 0.686

CC(C)c1cccc(C(C)C)c1N1C(=O)c2ccc(O)cc2C1=O [5HPP-33]
Cyto(realtime)_max [2, 7]: 4.71 log10(M)*-1
Cyto(realtime)_median [2, 8]: 4.30 log10(M)*-1
AUC score in Judson 2015 [1]: 0

O=C1C2CC=CCC2C(=O)N1SC(Cl)(Cl)Cl (stereo not shown) [Captan]
AUC score in Judson 2015 [1]: 0

Clc1ccccc1C(c1ccccc1)(c1ccccc1)n1ccnc1 [Clotrimazole, reference compound]
AUC score in Judson 2015 [1]: 0.00844

CC(C)(C)c1cc(/C=C2\SC(N)=NC2=O)cc(C(C)(C)C)c1O [Darbufelone mesylate]
AUC score in Judson 2015 [1]: 0

OC(c1ccc(Cl)cc1)(c1cncnc1)c1ccccc1Cl (stereo not shown) [Fenarimol]
AUC score in Judson 2015 [1]: 0.000907

CCCCC(O)(Cn1cncn1)c1ccc(Cl)cc1Cl (stereo not shown) [Hexaconazole]
AUC score in Judson 2015 [1]: 0.00822

CC(C)C1CCC(Cc2ccc(Cl)cc2)C1(O)Cn1cncn1 (stereo not shown) [Ipconazole]
AUC score in Judson 2015 [1]: 0.0166

CN(C)c1ccc(C(=C2C=CC(=[N+](C)C)C=C2)c2ccccc2)cc1.CN(C)c1ccc(C(=C2C=CC(=[N+](C)C)C=C2)c2ccccc2)cc1.O=C(O)C(=O)O.O=C([O-])C(=O)O.O=C([O-])C(=O)O [Malachite green oxalate]
information ([2]; any activity in any time point/assay): 1
hek293_flor_auc [3]: 1.491
hek293_flor_time [3]: 24
hek293_flor_bin ([3]; kinetics bin): cv_46 (cv_46: 24 < time < 32)
hek293_flor_emax_0 ([3]; time point 0): 0
hek293_flor_pod_0 ([3]; time point 0): -4.417
hek293_flor_wauc_0 ([3]; time point 0): 0
hek293_flor_emax_8 ([3]; time point 8): 0
hek293_flor_pod_8 ([3]; time point 8): -4.417
hek293_flor_wauc_8 ([3]; time point 8): 0
hek293_flor_emax_16 ([3]; time point 16): 25.2441
hek293_flor_pod_16 ([3]; time point 16): -4.42
hek293_flor_wauc_16 ([3]; time point 16): 0.5325
hek293_flor_ec50_16 [3, 9]: -4.591
hek293_flor_emax_24 ([3]; time point 24): 72.6532
hek293_flor_pod_24 ([3]; time point 24): -4.806
hek293_flor_wauc_24 ([3]; time point 24): 1.057
hek293_flor_ec50_24 [3, 10]: -4.702
hek293_flor_emax_32 ([3]; time point 32): 99.3082
hek293_flor_pod_32 ([3]; time point 32): -5.521
hek293_flor_wauc_32 ([3]; time point 32): 1.407
hek293_flor_ec50_32 [3, 11]: -4.895
hek293_flor_emax_40 ([3]; time point 40): 135.684
hek293_flor_pod_40 ([3]; time point 40): -5.642
hek293_flor_wauc_40 ([3]; time point 40): 1.5
hek293_flor_ec50_40 [3, 12]: -5.028
hek293_glo_auc [4]: 1.897
hek293_glo_time [4]: 8
hek293_glo_bin ([4]; kinetics bin): cv_26 (cv_26: 8 < time < 16)
hek293_glo_emax_0 ([4]; time point 0): 0
hek293_glo_pod_0 ([4]; time point 0): -4.417
hek293_glo_wauc_0 ([4]; time point 0): 0
hek293_glo_emax_8 ([4]; time point 8): -47.964
hek293_glo_pod_8 ([4]; time point 8): -5.267
hek293_glo_wauc_8 ([4]; time point 8): 1.621
hek293_glo_ec50_8 [4, 13]: -5.275
hek293_glo_emax_16 ([4]; time point 16): -74.3913
hek293_glo_pod_16 ([4]; time point 16): -6.896
hek293_glo_wauc_16 ([4]; time point 16): 2.239
hek293_glo_ec50_16 [4, 9]: -5.71
hek293_glo_emax_24 ([4]; time point 24): -84.5759
hek293_glo_pod_24 ([4]; time point 24): -6.8943
hek293_glo_wauc_24 ([4]; time point 24): 2.321
hek293_glo_ec50_24 [4, 10]: -6.073
hek293_glo_emax_32 ([4]; time point 32): -91.2313
hek293_glo_pod_32 ([4]; time point 32): -6.927
hek293_glo_wauc_32 ([4]; time point 32): 2.36
hek293_glo_ec50_32 [4, 11]: -6.025
hek293_glo_emax_40 ([4]; time point 40): -94.0423
hek293_glo_pod_40 ([4]; time point 40): -6.941
hek293_glo_wauc_40 ([4]; time point 40): 2.382
hek293_glo_ec50_40 [4, 12]: -6.071
hepg2_flor_auc [5]: 1.813
hepg2_flor_time [5]: 8
hepg2_flor_bin ([5]; kinetics bin): cv_26 (cv_26: 8 < time < 16)
hepg2_flor_emax_0 ([5]; time point 0): 0
hepg2_flor_pod_0 ([5]; time point 0): -4.417
hepg2_flor_wauc_0 ([5]; time point 0): 0
hepg2_flor_emax_8 ([5]; time point 8): 44.8674
hepg2_flor_pod_8 ([5]; time point 8): -4.571
hepg2_flor_wauc_8 ([5]; time point 8): 0.868
hepg2_flor_ec50_8 [5, 13]: -4.591
hepg2_flor_emax_16 ([5]; time point 16): 142.047
hepg2_flor_pod_16 ([5]; time point 16): -5.554
hepg2_flor_wauc_16 ([5]; time point 16): 1.871
hepg2_flor_ec50_16 [5, 9]: -4.76
hepg2_flor_emax_24 ([5]; time point 24): 168.072
hepg2_flor_pod_24 ([5]; time point 24): -5.707
hepg2_flor_wauc_24 ([5]; time point 24): 2.035
hepg2_flor_ec50_24 [5, 10]: -5.438
hepg2_flor_emax_32 ([5]; time point 32): 231.16
hepg2_flor_pod_32 ([5]; time point 32): -5.746
hepg2_flor_wauc_32 ([5]; time point 32): 2.119
hepg2_flor_ec50_32 [5, 11]: -5.498
hepg2_flor_emax_40 ([5]; time point 40): 275.23
hepg2_flor_pod_40 ([5]; time point 40): -6.016
hepg2_flor_wauc_40 ([5]; time point 40): 2.222
hepg2_flor_ec50_40 [5, 12]: -5.565
hepg2_glo_auc [6]: 1.838
hepg2_glo_time [6]: 0
hepg2_glo_bin ([6]; kinetics bin): cv_16 (cv_16: 0 < time < 8)
hepg2_glo_emax_0 ([6]; time point 0): 0
hepg2_glo_pod_0 ([6]; time point 0): -4.417
hepg2_glo_wauc_0 ([6]; time point 0): 0
hepg2_glo_emax_8 ([6]; time point 8): -63.2822
hepg2_glo_pod_8 ([6]; time point 8): -5.131
hepg2_glo_wauc_8 ([6]; time point 8): 1.514
hepg2_glo_ec50_8 [6, 13]: -4.735
hepg2_glo_emax_16 ([6]; time point 16): -91.4856
hepg2_glo_pod_16 ([6]; time point 16): -5.607
hepg2_glo_wauc_16 ([6]; time point 16): 1.892
hepg2_glo_ec50_16 [6, 9]: -5.318
hepg2_glo_emax_24 ([6]; time point 24): -91.3465
hepg2_glo_pod_24 ([6]; time point 24): -5.6539
hepg2_glo_wauc_24 ([6]; time point 24): 1.966
hepg2_glo_ec50_24 [6, 10]: -5.521
hepg2_glo_emax_32 ([6]; time point 32): -92.3669
hepg2_glo_pod_32 ([6]; time point 32): -5.816
hepg2_glo_wauc_32 ([6]; time point 32): 2.064
hepg2_glo_ec50_32 [6, 11]: -5.627
hepg2_glo_emax_40 ([6]; time point 40): -91.0249
hepg2_glo_pod_40 ([6]; time point 40): -5.846
hepg2_glo_wauc_40 ([6]; time point 40): 2.087
hepg2_glo_ec50_40 [6, 12]: -5.656

O=C(c1ccc(OCCN2CCCCC2)cc1)c1c(-c2ccc(O)cc2)sc2cc(O)ccc12 [Raloxifene hydrochloride]
AUC score in Judson 2015 [1]: 0.671

CC/C(=C(\c1ccccc1)c1ccc(OCCN(C)C)cc1)c1ccccc1 [Tamoxifen citrate]
AUC score in Judson 2015 [1]: 0.546

CC/C(=C(\c1ccccc1)c1ccc(OCCN(C)C)cc1)c1ccccc1 [Tamoxifen]
Cyto(realtime)_median [2, 8]: 4.64 log10(M)*-1
AUC score in Judson 2015 [1]: 0.447

CN[C@H]1CC[C@@H](c2ccc(Cl)c(Cl)c2)c2ccc(S(N)(=O)=O)cc21 [UK-373911]
Cyto(realtime)_max [2, 7]: 5.12 log10(M)*-1
Cyto(realtime)_median [2, 8]: 4.70 log10(M)*-1
AUC score in Judson 2015 [1]: 6.68e-8

CCCCCCCCCCCCOC(=O)c1cc(O)c(O)c(O)c1 [dodecyl gallate]
AUC score in Judson 2015 [1]: 0.0773
ER antagonist AUC score [1]: higher than 0.01

CC[C@H](c1ccc(O)cc1)[C@@H](CC)c1ccc(O)cc1 [meso-Hexestrol]
AUC score in Judson 2015 [1]: 0

CCCCCCCCOC(=O)c1cc(O)c(O)c(O)c1 [octyl gallate]
AUC score in Judson 2015 [1]: 0.0768
ER antagonist AUC score [1]: higher than 0.01

Dodecylphenol
Cyto(realtime)_max [2, 7]: 5.05 log10(M)*-1
Cyto(realtime)_median [2, 8]: 4.56 log10(M)*-1
AUC score in Judson 2015 [1]: 0

tetrabutyltin
Cyto(realtime)_max [2]: 5.64 log10(M)*-1
Cyto(realtime)_median [2]: 5.16 log10(M)*-1
AUC score in Judson 2015 [1]: 0.0101
ER antagonist AUC score [1]: higher than 0.01
